Laboratory results: ChEMBL document CHEMBL2429821, “A Casein kinase 1/Checkpoint kinase 1 pyrazolo-pyridine protein kinase inhibitor as novel activator of the p53 pathway” (Bioorg Med Chem Lett, 2013)
Active and inactive are the calls of the source. No cut-off for these calls is given here.

Assays:
[1] = target: T1, Casein kinase I/MDM2 (Homo sapiens) (UniProt Q00987+P48729); experiment: Inhibition of CK1-MDM2 complex in human A375 cells assessed as increase in p53 protein level at 0.2 to 5 uM after 48 hrs by immunoblotting analysis; format: cell-based; conditions: A-375
A-375 [2] = experiment: Cell cycle arrest in human A375 cells assessed as accumulation at S phase at 80 uM after 48 hrs by FACS flow cytometric analysis (reference value: 25.1%); format: functional
A-375 [3] = experiment: Cell cycle arrest in human A375 cells assessed as accumulation at G0-G1 phase at 80 uM after 48 hrs by FACS flow cytometric analysis (reference value: 55.4%); format: functional
A-375 [4] = experiment: Cell cycle arrest in human A375 cells assessed as accumulation at S phase at 40 uM after 48 hrs by FACS flow cytometric analysis (reference value: 25.1%); format: functional
A-375 [5] = experiment: Cell cycle arrest in human A375 cells assessed as accumulation at G0-G1 phase at 20 uM after 48 hrs by FACS flow cytometric analysis (reference value: 55.4%); format: functional
A-375 [6] = experiment: Cell cycle arrest in human A375 cells assessed as accumulation at G0-G1 phase at 10 uM after 48 hrs by FACS flow cytometric analysis (reference value: 55.4%); format: functional
A-375 [7] = experiment: Cell cycle arrest in human A375 cells assessed as accumulation at G2-M phase at 5 uM after 48 hrs by FACS flow cytometric analysis (reference value: 17.3%); format: functional
A-375 [8] = experiment: Cell cycle arrest in human A375 cells assessed as accumulation at G0-G1 phase at 5 uM after 48 hrs by FACS flow cytometric analysis (reference value: 55.4%); format: functional
HCT-116 = experiment: Cytotoxicity against p53-deficient human HCT116 cells assessed as cell viability at 1 to 32 uM after 24 hrs by MTT assay; format: functional, cell-based
[9] = target: Fibroblast growth factor receptor 1 (Homo sapiens, UniProt P11362); experiment: Inhibition of human FGFR1 in presence of 20 uM ATP
[10] = target: T2, Serine/threonine-protein kinase Chk1 (Homo sapiens, UniProt O14757); experiment: Inhibition of human CHK1 in presence of 20 uM ATP
T2 sequence (O14757 whole entry): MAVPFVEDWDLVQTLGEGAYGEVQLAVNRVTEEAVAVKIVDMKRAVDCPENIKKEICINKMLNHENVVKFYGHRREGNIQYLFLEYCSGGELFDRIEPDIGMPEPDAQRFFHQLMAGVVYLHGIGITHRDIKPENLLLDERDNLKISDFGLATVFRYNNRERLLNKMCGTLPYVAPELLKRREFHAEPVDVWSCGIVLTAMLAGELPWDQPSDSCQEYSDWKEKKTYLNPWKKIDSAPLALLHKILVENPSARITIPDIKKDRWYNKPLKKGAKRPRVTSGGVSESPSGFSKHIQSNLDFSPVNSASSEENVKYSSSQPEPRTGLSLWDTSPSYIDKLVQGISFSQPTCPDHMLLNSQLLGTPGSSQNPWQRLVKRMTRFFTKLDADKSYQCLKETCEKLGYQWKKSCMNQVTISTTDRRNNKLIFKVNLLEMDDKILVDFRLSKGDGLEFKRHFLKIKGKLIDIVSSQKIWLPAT

[11] = target: T3, Mitogen-activated protein kinase 12 (Homo sapiens) (UniProt P53778); experiment: Inhibition of human p38gamma MAPK assessed as residual activity at 1 uM relative to control
T3 sequence (whole entry): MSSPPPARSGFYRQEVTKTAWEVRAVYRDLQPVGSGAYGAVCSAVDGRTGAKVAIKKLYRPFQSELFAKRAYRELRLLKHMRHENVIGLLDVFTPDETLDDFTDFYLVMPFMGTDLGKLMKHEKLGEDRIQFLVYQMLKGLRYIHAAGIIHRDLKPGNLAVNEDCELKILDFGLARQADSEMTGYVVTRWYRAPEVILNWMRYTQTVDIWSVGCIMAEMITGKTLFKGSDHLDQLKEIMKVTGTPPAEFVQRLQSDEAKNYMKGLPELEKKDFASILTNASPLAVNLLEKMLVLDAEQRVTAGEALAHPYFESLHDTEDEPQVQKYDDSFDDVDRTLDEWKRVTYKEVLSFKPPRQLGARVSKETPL

[12] = target: Serine/threonine-protein kinase pim-2 (Homo sapiens) (UniProt Q9P1W9); experiment: Inhibition of human PIM2 assessed as residual activity at 1 uM relative to control
[13] = target: MAP kinase-activated protein kinase 2 (Homo sapiens) (UniProt P49137); experiment: Inhibition of human MAPKAPK2 assessed as residual activity at 1 uM relative to control
[14] = target: Mitogen-activated protein kinase 1 (Homo sapiens) (UniProt P28482); experiment: Inhibition of human MAPK2 assessed as residual activity at 1 uM relative to control
[15] = target: Serine/threonine-protein kinase pim-2 (Homo sapiens) (UniProt Q9P1W9); experiment: Inhibition of human PIM2 assessed as residual activity at 10 uM relative to control
[16] = target: Mitogen-activated protein kinase 1 (Homo sapiens) (UniProt P28482); experiment: Inhibition of human MAPK2 assessed as residual activity at 10 uM relative to control
Homo sapiens [17] = species: Homo sapiens; experiment: Inhibition of human VEGFR assessed as residual activity at 1 uM relative to control
Homo sapiens [18] = species: Homo sapiens; experiment: Inhibition of human VEGFR assessed as residual activity at 10 uM relative to control
[19] = target: T4, Mitogen-activated protein kinase 15 (Homo sapiens) (UniProt Q8TD08); experiment: Inhibition of human ERK8 assessed as residual activity at 10 uM relative to control
T4 sequence (whole entry): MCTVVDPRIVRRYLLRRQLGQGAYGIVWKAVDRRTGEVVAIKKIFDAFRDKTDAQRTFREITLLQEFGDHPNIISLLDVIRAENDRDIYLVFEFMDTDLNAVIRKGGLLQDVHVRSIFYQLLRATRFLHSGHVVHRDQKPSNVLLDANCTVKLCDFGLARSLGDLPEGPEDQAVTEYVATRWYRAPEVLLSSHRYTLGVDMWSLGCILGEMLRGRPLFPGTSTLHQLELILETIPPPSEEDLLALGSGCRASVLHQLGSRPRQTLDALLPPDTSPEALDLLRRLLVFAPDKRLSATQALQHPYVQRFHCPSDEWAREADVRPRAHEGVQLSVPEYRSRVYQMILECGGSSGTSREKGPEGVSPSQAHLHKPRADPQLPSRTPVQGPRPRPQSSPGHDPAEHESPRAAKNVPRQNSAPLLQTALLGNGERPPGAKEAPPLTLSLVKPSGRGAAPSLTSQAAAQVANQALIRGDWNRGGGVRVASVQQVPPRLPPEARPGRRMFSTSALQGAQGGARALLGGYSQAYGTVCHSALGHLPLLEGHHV

[20] = target: T1, Casein kinase I/MDM2 (Homo sapiens); experiment: Inhibition of CK1-MDM2 complex in human A375 cells assessed as decrease in E2F1 protein level after 48 hrs by immunoblotting analysis; format: cell-based; conditions: A-375
[21] = target: T1, Casein kinase I/MDM2 (Homo sapiens); experiment: Inhibition of CK1-MDM2 complex in human A375 cells assessed as effect on p21 protein level at 0.2 to 40 uM after 24 hrs by immunoblotting analysis; format: cell-based; conditions: A-375
[22] = target: Mitogen-activated protein kinase 14 (Homo sapiens, UniProt Q16539); experiment: Inhibition of human p38alpha MAPK assessed as residual activity at 1 uM relative to control
Mitogen-activated protein kinase 14, sequence (Q16539 whole entry): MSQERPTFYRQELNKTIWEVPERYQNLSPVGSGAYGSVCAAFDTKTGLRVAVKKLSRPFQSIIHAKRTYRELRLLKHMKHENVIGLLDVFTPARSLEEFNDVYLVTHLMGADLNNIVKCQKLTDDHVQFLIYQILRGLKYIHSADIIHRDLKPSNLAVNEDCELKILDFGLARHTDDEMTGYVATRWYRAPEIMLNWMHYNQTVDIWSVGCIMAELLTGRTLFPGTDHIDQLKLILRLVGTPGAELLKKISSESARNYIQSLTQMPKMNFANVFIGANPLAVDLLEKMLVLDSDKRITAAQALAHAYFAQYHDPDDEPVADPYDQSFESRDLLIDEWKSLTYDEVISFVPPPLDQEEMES

Serine/threonine-protein kinase pim-2 (Homo sapiens), sequence (Q9P1W9 whole entry, looked up): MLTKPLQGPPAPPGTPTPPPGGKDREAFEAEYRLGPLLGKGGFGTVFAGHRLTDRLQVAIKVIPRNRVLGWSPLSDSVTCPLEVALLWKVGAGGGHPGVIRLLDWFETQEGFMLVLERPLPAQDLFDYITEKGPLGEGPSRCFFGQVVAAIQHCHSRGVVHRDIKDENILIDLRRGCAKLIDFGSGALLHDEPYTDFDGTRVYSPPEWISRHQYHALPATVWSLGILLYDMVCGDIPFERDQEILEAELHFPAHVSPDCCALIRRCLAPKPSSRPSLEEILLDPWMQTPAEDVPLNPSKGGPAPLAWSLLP
T1 sequence (P48729 whole entry, looked up): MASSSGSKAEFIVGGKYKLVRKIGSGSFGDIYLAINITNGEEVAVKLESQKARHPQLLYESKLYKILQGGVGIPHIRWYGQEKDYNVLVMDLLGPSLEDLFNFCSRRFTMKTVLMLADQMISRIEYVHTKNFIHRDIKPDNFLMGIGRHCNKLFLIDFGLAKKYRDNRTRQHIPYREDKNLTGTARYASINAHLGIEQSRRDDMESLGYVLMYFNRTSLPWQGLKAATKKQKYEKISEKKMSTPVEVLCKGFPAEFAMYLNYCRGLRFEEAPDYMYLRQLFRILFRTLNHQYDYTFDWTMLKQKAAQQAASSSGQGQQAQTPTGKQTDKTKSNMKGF
T1 sequence (Q00987 whole entry, looked up): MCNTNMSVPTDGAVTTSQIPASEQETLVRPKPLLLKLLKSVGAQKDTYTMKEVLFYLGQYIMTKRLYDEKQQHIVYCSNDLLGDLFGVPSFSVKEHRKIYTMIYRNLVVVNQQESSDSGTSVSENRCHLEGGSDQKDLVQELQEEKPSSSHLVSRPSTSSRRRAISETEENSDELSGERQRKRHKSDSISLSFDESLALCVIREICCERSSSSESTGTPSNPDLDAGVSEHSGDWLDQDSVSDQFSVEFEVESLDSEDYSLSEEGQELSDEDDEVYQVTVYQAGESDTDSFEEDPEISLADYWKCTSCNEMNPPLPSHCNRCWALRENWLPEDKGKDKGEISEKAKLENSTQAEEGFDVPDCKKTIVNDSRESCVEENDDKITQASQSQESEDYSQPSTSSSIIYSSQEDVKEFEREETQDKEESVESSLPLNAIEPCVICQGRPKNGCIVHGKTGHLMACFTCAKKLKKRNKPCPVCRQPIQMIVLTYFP
Mitogen-activated protein kinase 1 (Homo sapiens), sequence (P28482 whole entry): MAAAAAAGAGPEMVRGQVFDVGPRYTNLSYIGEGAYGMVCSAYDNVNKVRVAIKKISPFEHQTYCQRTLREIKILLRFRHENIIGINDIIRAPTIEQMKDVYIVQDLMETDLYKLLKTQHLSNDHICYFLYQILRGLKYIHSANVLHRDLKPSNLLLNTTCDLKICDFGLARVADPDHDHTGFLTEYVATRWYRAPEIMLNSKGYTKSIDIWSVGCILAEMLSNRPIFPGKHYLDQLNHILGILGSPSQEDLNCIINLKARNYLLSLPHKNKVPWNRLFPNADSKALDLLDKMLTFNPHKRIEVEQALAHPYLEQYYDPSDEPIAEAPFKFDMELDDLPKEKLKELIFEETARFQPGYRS
MAP kinase-activated protein kinase 2 (Homo sapiens), sequence (P49137 whole entry, looked up): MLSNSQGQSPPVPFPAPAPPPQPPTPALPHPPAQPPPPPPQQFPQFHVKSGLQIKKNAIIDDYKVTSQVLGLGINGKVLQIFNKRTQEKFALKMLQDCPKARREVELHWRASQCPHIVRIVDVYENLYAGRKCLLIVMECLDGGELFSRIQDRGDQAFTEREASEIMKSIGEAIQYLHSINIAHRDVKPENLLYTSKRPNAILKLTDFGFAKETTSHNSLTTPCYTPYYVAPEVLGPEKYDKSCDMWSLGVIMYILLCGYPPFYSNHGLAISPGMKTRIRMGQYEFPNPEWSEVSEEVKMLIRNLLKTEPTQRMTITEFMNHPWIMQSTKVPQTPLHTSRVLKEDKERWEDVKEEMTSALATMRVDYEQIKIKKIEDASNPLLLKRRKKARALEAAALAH
Fibroblast growth factor receptor 1, sequence (P11362 whole entry): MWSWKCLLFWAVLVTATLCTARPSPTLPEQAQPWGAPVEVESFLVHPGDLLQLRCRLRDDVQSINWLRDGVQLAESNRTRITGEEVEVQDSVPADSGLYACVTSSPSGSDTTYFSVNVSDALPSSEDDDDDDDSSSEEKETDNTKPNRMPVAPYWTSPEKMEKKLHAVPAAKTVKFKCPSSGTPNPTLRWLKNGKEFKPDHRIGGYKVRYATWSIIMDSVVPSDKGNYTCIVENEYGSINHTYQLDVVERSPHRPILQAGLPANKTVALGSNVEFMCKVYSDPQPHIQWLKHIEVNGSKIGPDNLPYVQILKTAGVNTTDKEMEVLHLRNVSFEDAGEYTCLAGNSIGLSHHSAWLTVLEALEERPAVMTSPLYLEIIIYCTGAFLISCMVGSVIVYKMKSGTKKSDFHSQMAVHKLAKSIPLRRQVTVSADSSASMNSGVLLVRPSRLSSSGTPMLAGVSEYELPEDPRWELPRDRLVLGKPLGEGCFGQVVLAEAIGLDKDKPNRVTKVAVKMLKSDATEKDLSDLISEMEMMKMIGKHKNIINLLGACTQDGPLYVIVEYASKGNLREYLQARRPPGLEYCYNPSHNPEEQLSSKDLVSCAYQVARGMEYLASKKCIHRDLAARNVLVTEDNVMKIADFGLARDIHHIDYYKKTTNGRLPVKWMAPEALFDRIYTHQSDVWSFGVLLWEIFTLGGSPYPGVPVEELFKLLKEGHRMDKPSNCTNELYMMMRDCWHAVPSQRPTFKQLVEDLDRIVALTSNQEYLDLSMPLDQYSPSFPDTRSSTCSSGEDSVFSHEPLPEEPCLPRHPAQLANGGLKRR

SMILES	Activity (A-375 [2])	Activity (A-375 [3])	Activity [11]	Activity [12]	Activity [13]	Activity [14]	Activity [15]	Activity [16]	Activity (Homo sapiens [17])	Activity (Homo sapiens [18])	Activity [19]	also measured
CC(=O)Nc1cccc(-c2cnc3[nH]nc(C)c3c2)c1	11.6%	5.36%	117%	79%	63.8%	91.7%	58.7%	82.7%	54.5%	20.3%	15.8%	inhibition [1]: Active; Activity (A-375 [4]): 14%; Activity (A-375 [5]): 25.1%; Activity (A-375 [6]): 39.6%; Activity (A-375 [7]): 15.9%; Activity (A-375 [8]): 50.8%; Activity (HCT-116): Active; IC50 [9]: 6 µM; IC50 ([10]; read-out: IC50): 0.233 µM
CC(=O)Nc1nccc(-c2c(-c3ccccc3)noc2C)n1	21.9%	58.5%	97.1%	119%	94.7%	106%	103%	93%	79.5%	50.8%	89.5%	inhibition [20]: Dose-dependent effect; IC50 [10]: Not Active
CCCC(=O)Nc1n[nH]c2ncc(-c3cccnc3)cc12												inhibition [21]: inactive; Activity [22]: 84%
